Test results reported in patent publication EP4763847A1 (Jiangsu Yahong Meditech Co., Ltd., priority 2023, dated 2025).

What was measured:
[1] = system: HCT116 MTAP KO; assay: Cell proliferation inhibition (CellTiter Glo), HCT116 MTAP KO cells; type: cell-based; conditions: cultured 6 days with compound
Description: (§1) Test Example 2: Test of cell proliferation inhibition activity of the compounds
(§2) HCT116-WT (ATCC, CCL-247) and HCT116 MTAP KO (Cobioer Nanjing, CBP75002) cells were seeded into white low-transparency 96-well sterile cell culture plates at a density of 250 cells per well, respectively. The culture medium was McCoy's 5A Medium + 10% FBS. The plates were incubated overnight at 37°C with 5% CO2. The cells were treated with compounds gradiently with an initial concentration of 10000 nM, 4-fold dilution, and 8 concentration points. The last two columns were control wells with only DMSO added. The treated cells were continued to be cultured for 6 days. On the seventh day, 50 µL of CellTiter Glo® reagent was added to each well. After reacting on a shaker at room temperature for 10 minutes, the chemiluminescence signal in the plate was detected using the chemiluminescence detection method on a BIOTEK H1 multi-mode plate reader. […] Table 2: IC50 values of compounds for HCT116 MTAP KO/WT cell growth inhibition

[2] = system: HCT116-WT; assay: Cell proliferation inhibition (CellTiter Glo), HCT116-WT cells; type: cell-based; conditions: cultured 6 days with compound
Description: as §1, §2

[3] = target: PRMT5-MTA (Homo sapiens, UniProt O14744); assay: biochemical; conditions: IC50 (nM), PRMT5+MTA enzyme activity inhibition; PRMT5/MET50 protein 1 nM, 5'-deoxy-5'-adenosine 1 µM, SAM 2.5 µM, Histone H4 substrate 5 nM
Chain of PRMT5-MTA (O14744 whole entry): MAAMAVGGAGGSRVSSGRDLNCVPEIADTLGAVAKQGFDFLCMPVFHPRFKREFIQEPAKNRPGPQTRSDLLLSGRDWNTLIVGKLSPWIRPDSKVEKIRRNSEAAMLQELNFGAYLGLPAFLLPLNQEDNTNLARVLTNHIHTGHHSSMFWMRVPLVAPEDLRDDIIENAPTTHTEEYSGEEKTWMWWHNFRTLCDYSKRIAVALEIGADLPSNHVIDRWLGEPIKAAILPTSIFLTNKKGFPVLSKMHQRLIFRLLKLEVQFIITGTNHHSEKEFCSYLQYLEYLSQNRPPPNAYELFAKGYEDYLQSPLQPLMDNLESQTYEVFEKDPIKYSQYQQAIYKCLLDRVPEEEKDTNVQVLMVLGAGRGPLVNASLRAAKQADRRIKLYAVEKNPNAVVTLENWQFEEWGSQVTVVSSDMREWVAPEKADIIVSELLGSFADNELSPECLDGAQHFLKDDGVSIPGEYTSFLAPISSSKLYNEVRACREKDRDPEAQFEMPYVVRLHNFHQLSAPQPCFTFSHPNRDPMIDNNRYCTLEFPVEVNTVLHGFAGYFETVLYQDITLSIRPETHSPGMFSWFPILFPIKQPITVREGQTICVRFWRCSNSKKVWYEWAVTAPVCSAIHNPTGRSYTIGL
Chain of PRMT5-MTA (Q9BQA1 whole entry partner): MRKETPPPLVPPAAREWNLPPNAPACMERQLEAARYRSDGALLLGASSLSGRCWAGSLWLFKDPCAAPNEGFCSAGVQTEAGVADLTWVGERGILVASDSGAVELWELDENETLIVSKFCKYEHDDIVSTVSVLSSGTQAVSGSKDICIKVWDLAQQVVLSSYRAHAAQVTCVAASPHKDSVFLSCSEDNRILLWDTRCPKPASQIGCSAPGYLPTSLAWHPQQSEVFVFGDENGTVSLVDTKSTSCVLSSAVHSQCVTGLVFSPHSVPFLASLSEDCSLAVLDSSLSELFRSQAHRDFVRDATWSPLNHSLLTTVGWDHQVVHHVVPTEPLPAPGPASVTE
Description: The enzymatic inhibition activity of the compounds against PRMT5-MTA was detected using the AlphaScreen method. A 1× methyltransferase assay buffer IV (Signalchem) was prepared as a dilution solution for each component of the enzymatic reaction. […] The test compounds were added to all wells except the control wells in a 3-fold dilution series of 10 concentration points starting from 1000 nM using a Tecan D300e. After centrifugation at 1000 rpm for 1 minute in a centrifuge, the plate was incubated at 23°C for 15 minutes. Histone H4 substrate at a final concentration of 5 nM was added to the plate at 4 µL per well. After centrifugation at 1000 rpm for 1 minute in a centrifuge, the plate was reacted in an incubator at 23°C for 45 minutes. Anti-Histone H4 (symmetric dimethyl R3) antibody (Abcam) was pre-incubated with 50 µg/mL AlphaScreen Protein A Acceptor beads (PerkinElmer) at room temperature for 10 minutes, and then added to the plate in a volume of 10 µL per well, followed by reaction at room temperature for 1 hour. 10 µL of 50 µg/mL AlphaScreen Streptavidin Donor beads (PerkinElmer) were added to each well, and reacted at room temperature for 1 hour. The signal values in the plate were detected using the Alpha method on an Envision multi-mode plate reader. The IC50 values of the compounds for PRMT5/MET50 enzyme activity inhibition were calculated in Xlfit 5.0 software.

| IC50 ([1]; Homo sapiens, HCT-116, 144 h) [nM] | IC50 ([2]; 144 h) [nM] | IC50 [3] [nM] | IC50 [1] [nM] | IC50 [2] [nM] | Compound |
| --- | --- | --- | --- | --- | --- |
| 169 | 1990 | 7.7 |  |  | CNC(N)=Nc1ccc(C(=O)N(Cc2ccc(-c3cccnc3)cn2)[C@H](C)c2ccccc2F)cn1 [Compound 68] |
| 329 | 1570 | 9.7 |  |  | CN/C(N)=N\c1ccc(C(=O)N(Cc2ccc(-c3ccc(N4CCN(C)CC4)nc3)cn2)[C@H](C)c2ccccc2F)cn1 [Compound 130, (R,Z)-6-((amino(methylamino)methylene)amino)-N-(1-(2-fluorophenyl)ethyl)-N-((6'-(4-methylpiperazin-1-yl)-[3,3'-bipyridin]-6-yl)methyl)nicotinamide] |
| 36 | 536 | 5.8 |  |  | CNC(N)=Nc1ccc(C(=O)N(Cc2ccc(C(F)(F)F)cn2)n2ccc3cccnc32)cn1 [Compound 56, 6-((amino(methylamino)methylene)amino)-N-(1H-pyrrolo[2,3-b]pyridin-1-yl)-N-[(5-(trifluoromethyl)pyridin-2-yl)methyl)nicotinamide] |
| 931 | 3710 | 2.5 |  |  | CNC(N)=Nc1ccc(C(=O)N(Cc2ccc(C(F)(F)F)cn2)C(C)c2ccccc2C)cn1 (stereo not drawn) [Compound 41] |
| 32 | 345 | 5.4 |  |  | CN/C(N)=N\c1ccc(C(=O)N(Cc2ccc(C(C)(F)F)cn2)[C@H](C)c2ccccc2F)cn1 [Compound 76, (R,Z)-6-((amino(methylamino)methylene)amino)-N-((5-(1,1-difluoroethyl)pyridin-2-yl)methyl)-N-(1-(2-fluorophenyl)ethyl)nicotinamide] |
| 445 | 3330 | 4.6 |  |  | CNC(N)=Nc1ccc(C(=O)N(Cc2ccccc2)[C@H](C)c2ccccc2F)cn1 [Compound 99] |
| 508 | 3660 | 6.2 |  |  | CNC(N)=Nc1ccc(C(=O)N(Cc2cccc(F)c2)[C@H](C)c2ccccc2F)cn1 [Compound 110] |
| 304 | 2340 | 6.1 |  |  | CNC(N)=Nc1ccc(C(=O)N(Cc2ccc(F)cc2)[C@H](C)c2ccccc2F)cn1 [Compound 112] |
| 50 | 667 | 2.6 |  |  | CNC(N)=Nc1ccc(C(=O)N(Cc2ccc3c(cnn3C)c2)[C@H](C)c2ccccc2F)cn1 [Compound 102] |
| 353 | 5700 | 3.1 |  |  | CN/C(N)=N\c1ccc(C(=O)N(Cc2ccc3nn(C)cc3c2)[C@H](C)c2ccccc2F)cn1 [Compound 97, (R,Z)-6-((amino(methylamino)methylene)amino)-N-(1-(2-fluorophenyl)ethyl)-N-((2-methyl-2H-indazol-5-yl)methyl)nicotinamide] |
| 302 | 3360 | 3.4 |  |  | CNC(N)=Nc1ccc(C(=O)N(Cc2ccc(C(F)(F)F)cn2)C(C)c2cccc(C)c2)cn1 (stereo not drawn) [Compound 31, 6-((amino(methylamino)methylene)amino)-N-(1-(m-tolyl)ethyl)-N-((5-(trifluoromethyl)pyridin-2-yl)methyl)nicotinamide] |
| 352 | 1790 | 3.1 |  |  | CNC(N)=Nc1ccc(C(=O)N(Cc2ccc(F)c(C)c2)[C@H](C)c2ccccc2F)cn1 [Compound 101] |
| 182 | 3480 | 1.8 |  |  | CNC(N)=Nc1ccc(C(=O)N(Cc2ccc(C(F)(F)F)cn2)C(C)c2ccccn2)cn1 (stereo not drawn) [Compound 34] |
| 150 | 2580 | 3.9 |  |  | CNC(N)=Nc1ccc(C(=O)N(Cc2ccc(-c3cnc(C)nc3)cn2)[C@H](C)c2ccccc2F)cn1 [Compound 70] |
| 72 | 1080 | 6.5 |  |  | CNC(N)=Nc1ccc(C(=O)N(Cc2ccc(-c3cnc4c(cnn4C)c3)cn2)[C@H](C)c2ccccc2F)cn1 [Compound 73] |
| 933 | 2950 | 2.8 |  |  | CNC(N)=Nc1ccc(C(=O)N(Cc2ccc(C(F)(F)F)cn2)C(C)c2ccccc2OC(F)(F)F)cn1 (stereo not drawn) [Compound 60] |
| 25 | 512 | 1.7 |  |  | CNC(N)=Nc1ccc(C(=O)N(Cc2ccc(C(F)(F)F)cn2)c2cccc3nccnc23)cn1 [Compound 50] |
| 496 | 6450 | 3.7 |  |  | CNC(N)=Nc1ccc(C(=O)N(Cc2ccccn2)[C@H](C)c2ccccc2F)cn1 [Compound 111] |
| 55 | 210 | 3 |  |  | CC(c1ncccn1)N(Cc1ccc(C(F)(F)F)cn1)C(=O)c1ccc(N=C(N)NO)nc1 (stereo not drawn) [Compound 12] |
| 612 | 2970 | 3.2 |  |  | CN/C(N)=N\c1ccc(C(=O)N(Cc2ccc(C(F)(F)F)cn2)[C@H]2CCCc3ccccc32)cn1 [Compound 114, (S,Z)-6-((amino(methylamino)methylene)amino)-N-(1,2,3,4-tetrahydronaphthalen-1-yl) -N-((5-(trifluoromethyl)pyridin-2-yl)methyl)nicotinamide] |

| IC50 ([1]; Homo sapiens, HCT-116, 144 h) [nM] | IC50 ([2]; 144 h) [nM] | IC50 [3] [nM] | IC50 [1] [nM] | IC50 [2] [nM] | Compound |
| --- | --- | --- | --- | --- | --- |
| 63 | 307 | 3.4 |  |  | NC(=Nc1ccc(C(=O)N(Cc2ccc(C(F)(F)F)cn2)C2CCCc3ccccc32)cn1)NO (stereo not drawn) [Compound 116] |
| 49 | 912 | 6.6 |  |  | CN/C(N)=N\c1ccc(C(=O)N(Cc2ccc(C(F)(F)F)cn2)C(c2ccccc2F)C2CC2)cn1 (stereo not drawn) [Compound 94, (Z)-6-((amino(methylamino)methylene)amino)-N-(cyclopropyl(2-fluorophenyl)methyl) -N-((5-(trifluoromethyl)pyridin-2-yl)methyl)nicotinamide] |
| 601 | 2890 | 5.9 |  |  | CNC(N)=Nc1ccc(C(=O)N(Cc2cccc(Cl)c2)[C@H](C)c2ccccc2F)cn1 [Compound 106] |
| 233 | 2520 | 5.4 |  |  | CNC(N)=Nc1ccc(C(=O)N(Cc2ccc(-c3cnn(C)c3)cn2)[C@H](C)c2ccccc2F)cn1 [Compound 129] |
| 707 | 3550 | 1.3 |  |  | CCNC(N)=Nc1ccc(C(=O)N(Cc2ccc(C(F)(F)F)cn2)C(C)c2ncccn2)cn1 (stereo not drawn) [Compound 14] |
| 31 | 593 | 1.4 |  |  | CNC(N)=Nc1ccc(C(=O)N(Cc2ccc(C(F)(F)F)cn2)c2cccc3ccccc23)cn1 [Compound 47] |
| 942 | 3180 | 0.9 |  |  | CNC(N)=Nc1ccc(C(=O)N(Cc2ccc(C(F)(F)F)cn2)C(C)c2ccccc2C(F)(F)F)cn1 (stereo not drawn) [Compound 115] |
| 49 | 2650 | 3.2 |  |  | CNC(N)=Nc1ccc(C(=O)N(Cc2ccc(C(F)(F)F)cn2)N(C)c2ncccn2)cn1 [Compound 113] |
| 145 | 672 | 5.7 |  |  | CN/C(N)=N\c1ccc(C(=O)N(Cc2ccc(-c3ccc(N4CCOCC4)nc3)cn2)[C@H](C)c2ccccc2F)cn1 [Compound 67, (R,Z)-6-((amino(methylamino)methylene)amino)-N-(1-(2-fluorophenyl)ethyl)-N-((6'-morpholino-[3,3'-bipyridin]-6-yl)methyl)nicotinamide] |
| 287 | 1860 | 7.7 |  |  | CN/C(N)=N\c1ccc(C(=O)N(Cc2ccc3nc(C)sc3c2)[C@H](C)c2ccccc2F)cn1 [Compound 78, (R,Z)-6-((amino(methylamino)methylene)amino)-N-(1-(2-fluorophenyl)ethyl)-N-((2-methylbenzo[d]thiazol-6-yl)methyl)nicotinamide] |
| 33 | 504 | 7.1 |  |  | CNC(N)=Nc1ccc(C(=O)N(Cc2ccc(C(F)(F)F)cn2)C2CCCc3cccc(F)c32)cn1 (stereo not drawn) [compound 93] |
| 398 | 2790 | 1.3 |  |  | CNC(N)=Nc1ccc(C(=O)N(Cc2ccc(C(F)(F)F)cn2)C(C)c2cccc(F)c2)cn1 (stereo not drawn) [compound 119] |
| 50 | 643 | 4.8 |  |  | CNC(N)=Nc1ccc(C(=O)N(Cc2ccc(-c3cnn(C(F)(F)F)c3)cn2)[C@H](C)c2ccccc2F)cn1 [Compound 69] |
| 96 | 2010 | 2.2 |  |  | CNC(N)=Nc1ccc(C(=O)N(Cc2ccc(C(F)(F)F)cn2)[C@H](C)c2cccc(F)c2F)cn1 [Compound 91] |
| 150 | 2250 | 1.7 |  |  | CNC(N)=Nc1ccc(C(=O)N(Cc2ccc(C(F)(F)F)cn2)C(C)c2ncccn2)cn1 (stereo not drawn) [Compound 1] |
| 975 | 3310 | 2.7 |  |  | CNC(N)=Nc1ccc(C(=O)N(Cc2ccc(C(F)(F)F)cn2)[C@H]2CCc3ccccc32)cn1 [Compound 87] |
| 34 | 971 | 0.4 |  |  | CNC(N)=Nc1ccc(C(=O)N(Cc2ccc(C(F)(F)F)cn2)C(C)c2ncccc2F)cn1 (racemic) [Compound 58] |
| 422 | 1520 | 2.1 |  |  | CC(c1ncccn1)N(Cc1ccc(C(F)(F)F)cn1)C(=O)c1ccc(N=C(N)N)nc1 (stereo not drawn) [Compound 7] |
|  |  | 2.6 | 17 | 493 | CNC(N)=Nc1ccc(C(=O)N(Cc2ccc(C(F)(F)F)cn2)C2CCCc3cccnc32)cn1 (stereo not drawn) [Compound 44] |
